These results are taken from patent publication EP0618917B1, “1'-AMINO-2- (BENZOTHIAZOLYL)METHYL]SPIRO ISOQUINOLINE-4(1H),3'-PYRROLIDINE]-1,2',3,5'(2H)-TETRONES AND ANALOGS THEREOF USEFUL AS ALDOSE REDUCTASE INHIBITORS” (AMERICAN HOME PRODUCTS CORPORATION, priority 1991, dated 1993).

In the test the test system is aldose reductase. Description: Galactitol (dulcitol) accumulation in galactosemic rats, in vivo. The settings on record: percentage decrease of dulcitol accumulation vs untreated galactose-fed rats, four days; for % Lowering Galactitol Accumulation In Vivo %(D): diaphragm; for % Lowering Galactitol Accumulation In Vivo %(L): lens. The source says:
The aldose reductase inhibiting property of the compounds of this invention and the utilization of the compounds in preventing, diminishing and alleviating diabetic complications are demonstrable in experiments using galactosemic rats, see Dvornik et al., Science, 182, 1146 (1973). Such experiments are exemplified hereinbelow after the listing of the following general comments pertaining to these experiments: • (a) Four or more groups of six male rats, 50-70 g, Sprague-Dawley strain, were used. The first group, the control group, was fed a mixture of laboratory chow (rodent Laboratory Chow, Purina) and glucose at 20% (w/w %) concentration. An untreated galactosemic group was fed a similar diet in which galactose was substituted for glucose. The third group was fed a diet prepared by mixing a given amount of the test compound with the galactose containing diet The concentration of galactose in the diet of the treated groups was the same as that for the untreated galactosemic group. • (b) After four days, the animals were killed by euthanization. Both the lens and sciatic nerve were removed, weighed and stored frozen for polyol determination. • (c) The polyol determination was performed by a modification of the procedure of M. Kraml and L. Cosyns, Clin. Biochem., 2, 373 (1969). Only two minor reagent changes were made: (a) the rinsing mixture was an aqueous 5% (w/v) trichloroacetic acid solution and (b) the stock solution was prepared by dissolving 25 mg of dulcitol in 100 mL of an aqueous trichloroacetic acid solution. [N.B.: For each experiment the average value found in the tissue from rats fed the glucose diet was subtracted from the individual values found in the corresponding tissue in galactose-fed rats to obtain the amount of polyol accumulated.] The aldose reductase inhibiting effects of the compounds of formula (I) were also tested by employing an in vitro testing procedure similar to that described by S. Hayman and J.H. Kinoshita, J. Biol. Chem., 240, 877 (1965). In the present case the procedure of Hayman and Kinoshita was modified in that the final chromatography step was omitted in the preparation of the enzyme from bovine lens.
The figures under L, N, and D represent the percentage decrease of dulcitol accumulation in the tissues of the lens, sciatic nerve, and diaphragm, respectively for treated rats as compared to untreated rats.

For `O=C1c2ccccc2C2(CC(=O)N(N=C3CCCC3)C2=O)C(=O)N1Cc1nc2cc(C(F)(F)F)ccc2s1` (stereo not drawn) [1'-(Cyclopentylideneamino)-2-[[5-(trifluoromethyl)-2-benzothiazolyl]methyl]spiro[isoquinoline-4(1H),3'pyrrolidine]-1,2',3,5'(2H)-tetrone], under “Table 2, 50 mg/kg/day in diet”, the “% Lowering Galactitol Accumulation In Vivo %(D)” value turned out to be 95% and the “% Lowering Galactitol Accumulation In Vivo %(L)” value is 28%.

Consider `CC(C)=NN1C(=O)CC2(C(=O)N(Cc3nc4cc(C(F)(F)F)ccc4s3)C(=O)c3ccccc32)C1=O` (stereo not drawn) [1'-[(1-Methylethylidene)amino]-2-[[5-(trifluoromethyl)-2-benzothiazolyl]methyl]spiro[isoquinoline]-1,2',3,5'(2H)-tetrone], for which, under “Table 2, 50 mg/kg/day in diet”, the “% Lowering Galactitol Accumulation In Vivo %(D)” value is given as 97% and the “% Lowering Galactitol Accumulation In Vivo %(L)” value was determined as 37%.

On to `O=C1c2ccccc2C2(CC(=O)N(N=C3CCOCC3)C2=O)C(=O)N1Cc1nc2cc(C(F)(F)F)ccc2s1` (stereo not drawn) [1'-[(Tetrahydro-4H-pyran-4-ylidene)amino]-2-[[5-(trifluoromethyl)-2-benzothiazolyl]methyl]spiro[isoquinoline-4(1H),3'-pyrrolidine]-1,2',3,5'(2H)-tetrone], for which, for the setting “Table 2, 50 mg/kg/day in diet”, the “% Lowering Galactitol Accumulation In Vivo %(D)” value is reported as 96% and the “% Lowering Galactitol Accumulation In Vivo %(L)” value is 41%.

As for `NN1C(=O)CC2(C1=O)C(=O)N(Cc1nc3cc(C(F)(F)F)ccc3s1)C(=O)c1ccc(F)cc12` (stereo not drawn) [R^1=F, R^4=H, R^5=H], where the note is “dose 50 mg/kg/day in diet”, the “% Lowering Galactitol Accumulation In Vivo %(D)” value amounted to 97% and the “% Lowering Galactitol Accumulation In Vivo %(L)” value came out at 31%.

As for `CC(=O)NN1C(=O)CC2(C(=O)N(Cc3nc4cc(C(F)(F)F)ccc4s3)C(=O)c3ccccc32)C1=O` (stereo not drawn) [R^1=H, R^4=H, R^5=COCH3, N-[2-[[5-(trifluoromethyl)-2-benzothiazolyl]methyl]-2,3-dihydro-1,2',3,5'-tetraoxospiro[isoquinoline-4(1H),3'-pyrrolidine]-1'-yl] acetamide], for the setting “dose 50 mg/kg/day in diet”, the “% Lowering Galactitol Accumulation In Vivo %(D)” value is listed as 97% and the “% Lowering Galactitol Accumulation In Vivo %(L)” value was determined as 40%.

Consider `NN1C(=O)CC2(C1=O)C(=O)N(Cc1nc3cc(C(F)(F)F)ccc3s1)C(=O)c1ccccc12` (stereo not drawn) [R^1=H, R^4=H, R^5=H, 1'-Amino-2-[[5-(trifluoromethyl)-2-benzothiazolyl]methyl]spiro[isoquinoline-4(1H),3'-pyrrolidine]-1,2',3,5'(2H)-tetrone], for which, where the note is “dose 50 mg/kg/day in diet”, the “% Lowering Galactitol Accumulation In Vivo %(D)” value is listed as 96% and the “% Lowering Galactitol Accumulation In Vivo %(L)” value is on record as 61%.
